Reference: patent publication US5824652A, “Heterocyclic acyldipeptides, processes for the preparation thereof and pharmaceutical compositions containing the same” (Univerza v Ljubljani, Fakulteta za naravoslovje in …, priority 1993, dated 1998)

Tests used:
[1] = Pyrogenous activity according to the method of USPXXII; assay type: in vivo
Experimental: The pyrogenous activity was determined according to the method of USPXXII.

[2] = test system: Candida albicans; experiment: Immunorestoration test (cyclophosphamide-immunosuppressed mice challenged with Candida albicans); assay type: in vivo; conditions: for Number of survivals: Candida albicans challenge, n = 10
Experimental: The test substance or a vehicle was administered i.p. to groups of 10 mice on days 1, 3 and 5 of the experiment in four different doses (0.1, 1, 10 and 100 mg/kg). Cyclophosphamide (30 mg/kg) was administered p.o. on days 2, 4, and 6. One day after the last immunosuppressant (cyclophosphamide) dose, the mice were challenged with a suspension of Candida albicans sufficient to result in the mortality of a predominant number of the animals.

[3] = test system: lymphocytes B; experiment: Determination of haemolytic plaques for the assessment of the maturation of lymphocytes B; assay type: in vivo; conditions: mice immunized with sheep erythrocytes, n = 5
Experimental: A suspension of sheep erythrocytes (Institute of Microbiology, Faculty of Medicine, Ljubljana, Slovenia) in physiological saline (10^8 /ml) was used for the immunization. […] Romurtide was dissolved in a solution of D-manitol (45 mg/ml; Nopia) and compound 1 was dissolved in physiological saline. The immunization was completed on day 5 after the administration of sheep erythrocytes and the mice were sacrificed. Their spleens were removed and homogenized in Gibco 199 medium. The lymphocytes were separated on the Ficol separating medium (Pharmacia, Uppsala, Sweden). After repeated rinsing with Gibco 199 medium, the cells were resuspended in RPMI 1640 nutrient medium with added 10% of foetal calf serum and streptomycin. To 50 μl of the cell suspension, 450 μl of trypan blue were added and the cells were counted in Neubauer's chamber. The number of lymphocytes per ml of the cell suspension was calculated. To 100 μl of the diluted cell suspension, there were added 200 μl of the RPMI 1640 nutrient medium, 50 μl of a 10% suspension of sheep erythrocytes and 50 μl of guinea pig complement (Institute for Microbiology, Faculty of Medicine, Ljubljana, Slovenia). The reaction mixture (RM) was put into the prepared chambers on the slide, the chambers were sealed with white wax and incubated at 37° C. for 60 minutes. After the completion of the incubation, the plaques were counted under microscope. The number of plaques per 1×10^6 cells was calculated according to the following equations: [formula] In the table, the values are presented as stimulation indexes (number of plaques in the test group/number of plaques in the control group).

[4] = Toxicity, average lethal dose (LD50); assay type: in vivo; conditions: male mice, intravenous application
[5] = test system: B-16 melanoma; experiment: Antitumor activity, solid subcutaneous B-16 melanoma; assay type: in vivo, C57B1/6 strain mice; conditions: 10 mg/kg on five consecutive days, started 24 hours after tumor induction; for Animals with complete regression of tumors: still without tumors on day 20
Experimental: Solid subcutaneous B-16 melanoma were used on C57B1/6 strain mice of 8 to 10 weeks. The tumors were implanted by injection of 3×10^5 live tumor cells into the left lower abdomen of mice. The suspension of tumor cells was prepared in ENAM (Eagle's Minimal Essential Medium, Sigma Chemical Co., St. Louis, Mo., U.S.A.) enriched with 2% foetal calf serum (FCS, Sigma). Tumor cells (B-16 melanoma tumor cells, clone F1, ATCC, Rockville, Md.) for implantation into test animals were grown in vitro in a cell culture. The application of the test substances was started 24 hours after the tumor induction. The test substance was injected five times on five consecutive days in a dose of 10 mg/kg, the dose of Nopia was 1 mg/kg of test animals daily (a fivefold human dose). The antitumor activity of the active compounds was monitored by recording the tumor emergence, daily measuring the tumor diameters and calculating the tumour volumes.

[6] = 0.1 mg/kg × 3 i.p. + cyclophosphamide 30 mg/kg p.o.
[7] = 1 mg/kg × 3 i.p. + cyclophosphamide 30 mg/kg p.o.
[8] = 10 mg/kg × 3 i.p. + cyclophosphamide 30 mg/kg p.o.
[9] = 100 mg/kg × 3 i.p. + cyclophosphamide 30 mg/kg p.o.

Structure (SMILES): C[C@H](NC(=O)C1(C)Oc2ccccc2N(C)C1=O)C(=O)N[C@H](CCC(=O)O)C(N)=O (stereo partly drawn) [Compound 1, N-(3,4-Dihydro-2,4-dimethyl-3-oxo-2H-1,4-benzoxazine-2-carbonyl)-L-alanyl-D-isoglutamine]
- Pyrogenous activity [1]: did not show any pyrogenous activity
- Number of survivals [2, 6]: 6
- Number of survivals [2, 7]: 6
- Number of survivals [2, 8]: 7
- Number of survivals [2, 9]: 6
- Dose achieving the immunorestorative effect, times lower in comparison with the related compounds of U.S. Pat. No. 5,231,216 ([2]; comparison across i.p. doses 0.1-100 mg/kg): up to 100 times
- Immunorestorative activity compared with romurtide ([2]; mouse, in vivo): superior to that of the MDP analogue romurtide
- Stimulation index (number of plaques in the test group/number of plaques in the control group) ([3]; dose 1 μ/mouse): 3.64
- Stimulation index (number of plaques in the test group/number of plaques in the control group) ([3]; dose 10 μ/mouse): 5.32
- average lethal dose (LD50) [4]: > 250 mg/kg

Structure (SMILES): C[C@H](NC(=O)C1(C)Oc2ccccc2NC1=O)C(=O)N[C@H](CCC(=O)O)C(N)=O (stereo partly drawn) [Compound 3, N-(3,4-dihydro-2-methyl-3-oxo-2H-1,4-benzoxazine-2-carbonyl)-L-alanyl-D-isoglutamine]
- Animals still without tumors on day 20 after the tumor induction [5]: three animals of nine

Structure (SMILES): CCCCCCCCCCCC(=O)N[C@@H]1CCCC[C@H]1OCC(=O)N[C@@H](C)C(=O)N[C@H](CCC(=O)O)C(N)=O [U.S. 5,231,216, N[trans2-(2dodecanoylaminocyclohexyloxy)acetyl)L-alanyl-D-isoglutamine, reference compound]
- Number of survivals [2, 6]: 2
- Number of survivals [2, 7]: 5
- Number of survivals [2, 8]: 6
- Number of survivals [2, 9]: 6

Structure (SMILES): C[C@@H](NC(=O)C1(C)Oc2ccccc2NC1=O)C(=O)N[C@H](CCC(=O)O)C(N)=O (stereo partly drawn) [Compound 2, (2R)-N-(3,4-dihydro-2-methyl-3-oxo-2H-1,4-benzoxazine-2-carbonyl)-L-alanyl-D-isoglutamine]
- Animals with complete regression of tumors [5]: two of eight animals

Structure (SMILES): CCCCCCCCCCCCCCCCCC(=O)NCCCC[C@H](NC(=O)CC[C@@H](NC(=O)[C@H](C)NC(=O)[C@@H](C)O[C@H]1[C@H](O)[C@@H](CO)OC(O)[C@@H]1NC(C)=O)C(N)=O)C(=O)O (stereo partly drawn) [Romurtide, romurtide, reference compound]
- Number of survivals [2, 6]: 5
- Stimulation index (number of plaques in the test group/number of plaques in the control group) ([3]; dose 1 μ/mouse): 1.06
- Stimulation index (number of plaques in the test group/number of plaques in the control group) ([3]; dose 10 μ/mouse): 1.92

Structure (SMILES): C[C@H](NC(=O)C1(C)Oc2ccccc2N(C)C1=O)C(=O)N[C@H](CCC(=O)O)C(N)=O (stereo partly drawn) [Compound 4, (2S)-N-(3,4-dihydro-2,4-dimethyl-3-oxo-2H-1,4-benzoxazine-2-carbonyl)-L-alanyl-D-isoglutamine]
- Animals with complete regression of tumors [5]: one of nine animals

Structure (SMILES): O=P1(N(CCCl)CCCl)NCCCO1 (stereo not drawn) [Cyclophosphamide, reference compound]
- Number of survivals ([2]; cyclophosphamide alone 30 mg/kg × 3 p.o.): 3
